{"source": "patent US6949558B2", "about": "“Enhancement of taxane-based chemotherapy by a CDK1 antagonist” (Yale University, priority 2001, dated 2005)", "key": {"HeLa cells": {"test_system": "HeLa cells", "assay": "Apoptosis by DNA content analysis and flow cytometry in HeLa cells", "assay_type": "cell-based, human", "conditions": "HeLa", "procedure": "Cervical carcinoma HeLa (functionally inactivated p53) cells or breast carcinoma MCF-7 (wild type p53) cells were plated at 50-60% confluency in C-6 wells. Cells were treated with taxol at 0.2 μM for 0 to 32 hours in complete media.\nAfter 4, 8, 16, and 32 hours of incubation, without removing taxol from the wells, purvalanol A was added at three increasing concentrations, 1, 10 and 20 uM (FIG. 1). A control was performed with addition of purvalanol A at the 0-h time point.\nThe cell populations were harvested at increasing time intervals from the 0-h time point or corresponding to the addition of purvalanol A. Apoptosis was analyzed by DNA content analysis and flow cytometry (DAPI staining)."}, "HT2-19 cells": {"test_system": "HT2-19 cells", "assay": "Apoptosis and cell cycle in HT2-19 cells with conditional inactivation of p34^cdc2", "assay_type": "cell-based", "conditions": "taxol 0.2 μM", "source_text": "Cell Cultures and Antibodies: Breast carcinoma MCF-7, prostate carcinoma PC3, and cervical carcinoma HeLa cells (American Type Culture Collection, Manassas, Va.) were maintained in culture according to the supplier's recommendations. HT2-19 cells with conditional inactivation of the p34^cdc2 gene were described previously (J. E. Itzhaki et al. (1997) Nat. Gen. 15: 258-265). In this cell line, removal of IPTG from the culture medium results in inactivation of the second p34^cdc2 allele (J. E. Itzhaki et al. (1997) Nat. Gen. 15: 258-265). For spindle checkpoint activation, the various cell types were treated with taxol (0.2-2 μM, Sigma Chemical Co., St. Louis, Mo.), vincristine (100 nM, Sigma) or cisplatin (3 μM, Sigma) for 16 h at 37° C. For genetic ablation of p34^cdc2, HT2-19 cells were washed and cultivated in the absence of IPTG for 48-72 h before analysis of apoptosis (see below) or expression of survivin or p34^cdc2, by Western blotting. In some experiments, taxol (0.2 μM) was added to HT2-19 cells simultaneously with the withdrawal of IPTG, and cells were processed as described above. […] For viral transduction, HT2-19 cells in the absence of IPTG were infected with pAd-GFP or pAd-Survivin at multiplicity of infection (m.o.i.) of 50, and analyzed after a 48-72 h culture for changes in cell cycle progression and apoptosis. […]"}, "[1]": {"test_system": "p34^cdc2 kinase activity (MPM-2 epitope) in MCF-7 cells", "assay": "MPM-2 mitotic phosphoepitope expression (p34^cdc2 kinase activity) in MCF-7 cells", "assay_type": "cell-based, human", "procedure": "MPM-2 Mitotic Phosphoepitope Expression: For detection of mitotic phosphoproteins (D. D. Vandre et al. (1989) J. Cell Sci. 94: 245-58), MCF-7 cells (1-2×10^5 cells/60 mm dish) were treated with taxol (2 μM), adriamycin (100 nM), 50 or 300 J/m^2 UVB irradiation and cultured for 0, 8, 16, 24 or 36 h at 37° C. Cells were fixed in 70% ethanol, labeled with MPM-2 antibody (6 μg/ml) followed by addition of goat anti-mouse FITC (Boehringer Mannheim) for 1 h at 22° C. in the presence of 5 μg/ml propidium iodide (PI) containing 50 μg/ml RNase A. Samples were analyzed on a FACScan (Becton Dickinson, Mountain View, Calif.), using CellQuest software.\nMPM-2 Mitotic Phosphoepitope Expression: For detection of mitotic phosphoproteins (D. D. Vandre et al. (1989) J. Cell Sci. 94: 245-258), MCF-7 cells (1-2×10^5 cells/60 mm dish) were treated with taxol (0.2 μM), or vincristine (100 nM) for increasing time intervals (8-36 h) at 37° C. Cells were fixed in 70% ethanol, labeled with MPM-2 antibody (6 μg/ml; Upstate Biotechnology, Lake Placid, N.Y.) followed by addition of goat anti-mouse FITC (Boehringer Mannheim) for 1 h at 22° C. in the presence of 5 μg/ml propidium iodide containing 50 μg/ml RNAse A. Samples were analyzed on a FACScan (Becton Dickinson, Mountain View, Calif.), using CellQuest software. Data are expressed as %MPM-2 positive cells in the entire population."}, "[2]": {"test_system": "survivin expression in MCF-7 cells", "assay": "Survivin expression by Western blotting in MCF-7 cells", "assay_type": "cell-based, human", "conditions": "taxol 2 μM (FIG. 19A)"}}, "data": [{"smiles": "CC(=O)O[C@H]1C(=O)[C@@]2(C)[C@H]([C@H](OC(=O)c3ccccc3)[C@]3(O)C[C@H](OC(=O)[C@H](O)[C@@H](NC(=O)c4ccccc4)c4ccccc4)C(C)=C1C3(C)C)[C@]1(OC(C)=O)CO[C@@H]1C[C@@H]2O", "note": "[taxol, Paclitaxel]", "values": [{"measurement": "cell population with hypodiploid (apoptotic) DNA content / cell death", "setting": "HeLa cells; 16 h, taxol 0.2 μM, Purvalanol A 20 μM, alone or sequential", "result": 16, "unit": "%"}, {"measurement": "hypodiploid cells", "setting": "HeLa cells; taxol 0.2 μM alone (Example 1)", "result": "~10", "unit": "%"}, {"measurement": "apoptosis (hypodiploid cell fraction)", "setting": "HeLa cells; taxol 0.2 μM for 0 to 32 hours", "result": "virtually no apoptosis"}, {"measurement": "cell cycle arrest", "setting": "HeLa cells; taxol 0.2 μM or purvalanol A 1-20 uM alone (Examples 1, 2)", "result": "uniform M arrest"}, {"measurement": "apoptosis", "setting": "HeLa cells; taxol 0.2 μM, up to 32 h (Example 8)", "result": "negligible induction of apoptosis"}, {"measurement": "cell cycle arrest", "setting": "HT2-19 cells; HT2-19, p34^cdc2 +/− (IPTG present)", "result": "homogeneous mitotic arrest"}, {"measurement": "apoptosis vs untreated IPTG− cultures", "setting": "HT2-19 cells; IPTG− HT2-19 cells (p34^cdc2 −/−)", "result": "considerably increased apoptosis"}, {"measurement": "MPM-2 expression", "setting": "[1]; taxol 2 μM (Example 7)", "result": "elevated MPM-2 expression"}, {"measurement": "p34^cdc2 kinase activity (MPM-2 phosphoepitope expression)", "setting": "[1]; taxol 0.2-2 μM (Example 8)", "result": "elevated p34^cdc2 kinase activity"}, {"measurement": "increased expression of survivin", "setting": "[2]", "result": "3-4 fold"}]}]}
